In patent US10800791B2, “Triazole ACC inhibitors and uses thereof” (Gilead Apollo, LLC, priority 2015, dated 2020):
In brackets after ≈: the same amount, converted by molar mass. Like-named read-outs stand apart in the source and are kept apart here. Blank lines part the entries; values can stand above or below the compound they belong to.

Key:
[1] = tested on: Collectotrichum graminicola (Cg); experiment: Growth inhibition assay of fungal pathogens, Cg; assay type: cell-based; conditions: 48 h
Procedure, shortened: (§1)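 Spore suspension in 17% V8 liquid media; cpd final 50/10/2 or 2/0.4/0.08 ppm, 2% DMSO. OD600 + visual, 24 & 48 h; % inhibition at 48 h vs 2% DMSO ctrl.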

[2] = tested on: Fusarium moniliforme (Fm); experiment: Growth inhibition assay of fungal pathogens, Fm; assay type: cell-based; conditions: for IC90: Fusarium verticillioides, 48 h, read-out: Concentration at 90% Inhibition Fm
Procedure, shortened: as §1

[3] = tested on: Septoria tritici (St); experiment: Growth inhibition assay of fungal pathogens, St; assay type: cell-based; conditions: Zymoseptoria tritici, 48 h
Procedure, shortened: as §1

[4] = tested on: Fusarium virguliforme (Fv); experiment: Growth inhibition assay of fungal pathogens, Fv; assay type: cell-based; conditions: 48 h
Procedure, shortened: as §1

[5] = target: human (hACC2) (Homo sapiens, UniProt O00763); experiment: In vitro ACC inhibition assay (ADP-Glo), hACC2; assay type: biochemical; conditions: 5 nM ACC2, 20 μM ATP, 20 μM acetyl-CoA
Experimental: The detailed procedure is as follows. […] 10 μL ADP glo reagent was added. […] 20 μL kinase detection reagent was added.

[6] = tested on: C. krusei; experiment: Antifungal Activity Assay (broth microtiter MIC), C. krusei; assay type: cell-based, Candida krusei; conditions: Pichia kudriavzevii, ATCC6258, 48 h
Procedure, shortened: (§2)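 MICs were scored by eye at 48 h relative to the growth control. Plates followed CLSI M27-A3, with Candida suspensions in RPMI 1640+MOPS giving a final 2.5×10^3 CFU/mL; the colonies came from Sabouraud agar grown overnight at 35 °C.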

[7] = tested on: Phytophthora capsici (Pc); experiment: Growth inhibition assay of fungal pathogens, Pc; assay type: cell-based; conditions: 48 h
Procedure, shortened: as §1

[8] = tested on: Diplodia maydis (Dm); experiment: Growth inhibition assay of fungal pathogens, Dm; assay type: cell-based; conditions: Stenocarpella maydis, 48 h
Procedure, shortened: as §1

[9] = tested on: Rhizoctonia solani (Rs); experiment: Growth inhibition assay of fungal pathogens, Rs; assay type: cell-based; conditions: 48 h
[10] = tested on: C. albicans; experiment: Antifungal Activity Assay (broth microtiter MIC), C. albicans; assay type: cell-based, Candida albicans; conditions: Candida albicans, ATCC90028, 48 h
Procedure, shortened: as §2

[11] = tested on: C. parapsilosis; experiment: Antifungal Activity Assay (broth microtiter MIC), C. parapsilosis; assay type: cell-based, Candida parapsilosis; conditions: Lodderomyces parapsilosis, ATCC22019, 48 h
Procedure, shortened: as §2

[12] = Fusarium moniliforme, growth inhibition at 48 hours vs 2% DMSO control

Sequence of human (hACC2) (O00763 whole entry): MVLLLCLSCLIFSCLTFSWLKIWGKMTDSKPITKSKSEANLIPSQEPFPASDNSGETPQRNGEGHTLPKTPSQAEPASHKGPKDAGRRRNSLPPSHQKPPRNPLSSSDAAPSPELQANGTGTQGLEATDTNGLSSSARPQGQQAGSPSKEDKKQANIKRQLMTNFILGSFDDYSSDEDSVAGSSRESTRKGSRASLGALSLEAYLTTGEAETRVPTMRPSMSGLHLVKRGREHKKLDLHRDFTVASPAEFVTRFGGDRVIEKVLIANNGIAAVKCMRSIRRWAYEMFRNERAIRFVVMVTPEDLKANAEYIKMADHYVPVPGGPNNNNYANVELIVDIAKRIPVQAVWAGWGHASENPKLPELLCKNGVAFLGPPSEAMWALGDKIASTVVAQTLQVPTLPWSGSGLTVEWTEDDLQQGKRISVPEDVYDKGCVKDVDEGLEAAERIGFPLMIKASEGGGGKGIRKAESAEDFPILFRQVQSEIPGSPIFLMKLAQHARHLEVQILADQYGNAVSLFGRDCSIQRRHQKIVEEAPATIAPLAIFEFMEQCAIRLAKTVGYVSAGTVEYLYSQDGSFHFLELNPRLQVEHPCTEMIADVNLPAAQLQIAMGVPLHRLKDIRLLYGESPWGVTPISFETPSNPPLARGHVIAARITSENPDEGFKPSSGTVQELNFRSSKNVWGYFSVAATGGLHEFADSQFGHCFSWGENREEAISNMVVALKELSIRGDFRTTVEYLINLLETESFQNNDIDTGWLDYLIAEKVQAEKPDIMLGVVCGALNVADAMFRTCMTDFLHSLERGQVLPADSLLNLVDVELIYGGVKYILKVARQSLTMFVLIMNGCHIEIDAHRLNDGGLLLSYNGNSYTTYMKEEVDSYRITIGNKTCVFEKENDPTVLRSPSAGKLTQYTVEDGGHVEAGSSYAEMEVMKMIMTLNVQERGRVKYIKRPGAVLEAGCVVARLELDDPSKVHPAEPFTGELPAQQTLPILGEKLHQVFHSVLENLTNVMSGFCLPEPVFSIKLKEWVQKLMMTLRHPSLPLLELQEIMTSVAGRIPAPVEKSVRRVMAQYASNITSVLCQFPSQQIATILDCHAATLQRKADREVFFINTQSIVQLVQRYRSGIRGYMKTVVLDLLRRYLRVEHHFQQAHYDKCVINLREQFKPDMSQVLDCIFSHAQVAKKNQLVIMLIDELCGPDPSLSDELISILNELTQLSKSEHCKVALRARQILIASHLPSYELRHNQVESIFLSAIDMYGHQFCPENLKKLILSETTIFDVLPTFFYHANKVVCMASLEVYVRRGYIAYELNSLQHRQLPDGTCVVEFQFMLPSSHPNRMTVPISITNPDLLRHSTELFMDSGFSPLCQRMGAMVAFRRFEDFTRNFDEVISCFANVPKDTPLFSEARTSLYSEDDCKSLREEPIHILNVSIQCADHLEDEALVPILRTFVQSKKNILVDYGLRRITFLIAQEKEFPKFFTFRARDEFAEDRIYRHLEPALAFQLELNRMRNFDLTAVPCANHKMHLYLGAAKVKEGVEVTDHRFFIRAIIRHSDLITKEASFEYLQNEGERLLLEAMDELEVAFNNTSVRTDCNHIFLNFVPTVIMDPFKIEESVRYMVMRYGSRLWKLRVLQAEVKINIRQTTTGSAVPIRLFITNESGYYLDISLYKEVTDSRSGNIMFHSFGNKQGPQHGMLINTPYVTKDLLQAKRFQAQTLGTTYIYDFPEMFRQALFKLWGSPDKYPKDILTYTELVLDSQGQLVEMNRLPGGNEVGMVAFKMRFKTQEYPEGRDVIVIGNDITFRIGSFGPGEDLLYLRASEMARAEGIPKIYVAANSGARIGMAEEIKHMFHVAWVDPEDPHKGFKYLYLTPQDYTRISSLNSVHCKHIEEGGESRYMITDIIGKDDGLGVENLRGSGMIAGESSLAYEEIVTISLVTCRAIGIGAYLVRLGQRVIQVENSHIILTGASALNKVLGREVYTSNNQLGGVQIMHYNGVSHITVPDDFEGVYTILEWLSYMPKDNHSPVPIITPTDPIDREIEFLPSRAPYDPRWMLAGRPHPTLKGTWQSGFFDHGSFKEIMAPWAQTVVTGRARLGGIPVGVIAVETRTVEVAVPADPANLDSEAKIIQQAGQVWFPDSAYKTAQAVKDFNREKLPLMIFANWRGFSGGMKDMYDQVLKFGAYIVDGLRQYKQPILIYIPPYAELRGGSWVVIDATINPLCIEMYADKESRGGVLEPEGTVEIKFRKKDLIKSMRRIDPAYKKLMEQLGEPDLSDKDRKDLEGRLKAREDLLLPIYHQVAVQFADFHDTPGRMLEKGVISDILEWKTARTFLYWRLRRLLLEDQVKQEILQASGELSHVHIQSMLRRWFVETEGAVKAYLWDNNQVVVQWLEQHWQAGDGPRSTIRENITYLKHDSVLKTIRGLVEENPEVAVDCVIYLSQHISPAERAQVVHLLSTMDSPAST

Structure (SMILES): COc1ccc(F)cc1[C@H](Cn1c(=O)n(C(C)(C)C(=O)N2CCCCC2)c(=O)c2c(C)c(-n3nccn3)sc21)OC1CCOCC1 [Compound I-24, (R)-1-(2-(5-fluoro-2-methoxyphenyl)-2-((tetrahydro-2H-pyran-4-yl)oxy)ethyl)-5-methyl-3-(2-methyl-1-oxo-1-(piperidin-1-yl)propan-2-yl)-6-(2H-1,2,3-triazol-2-yl)thieno[2,3-d]pyrimidine-2,4(1H,3H)-dione]
IC90 ([1]; read-out: Concentration at 90% Inhibition Cg, Collectotrichum graminicola, growth inhibition at 48 hours vs 2% DMSO control): 0.08 µg/mL (≈ 0.122 µM)
IC90 ([1]; read-out: Concentration at 90% Inhibition Cg, Collectotrichum graminicola, growth inhibition vs 2% DMSO control at 48 hours): 0.08 µg/mL (≈ 0.122 µM)
Concentration at 90% Inhibition Fm [2, 12]: AA (compound concentration of 0.08 ppm at 90% inhibition of fungal pathogens)
IC90 [2]: 0.08 µg/mL (≈ 0.122 µM)
IC90 ([3]; read-out: Concentration at 90% Inhibition St, Septoria tritici, growth inhibition at 48 hours vs 2% DMSO control): 2 µg/mL (≈ 3.05 µM)
IC90 ([3]; read-out: Concentration at 90% Inhibition St, Septoria tritici, growth inhibition vs 2% DMSO control at 48 hours): 10 µg/mL (≈ 15.3 µM)
IC90 ([4]; read-out: Concentration at 90% Inhibition Fv, Fusarium virguliforme, growth inhibition at 48 hours vs 2% DMSO control): 0.4 µg/mL (≈ 0.611 µM)
IC90 ([4]; read-out: Concentration at 90% Inhibition Fv, Fusarium virguliforme, growth inhibition vs 2% DMSO control at 48 hours): 0.4 µg/mL (≈ 0.611 µM)
IC50 ([5]; Table 2a): 10 to 40 nM
IC50 ([5]; Table 2b, additional results): 10 to 40 nM
MIC ([6]; read-out: MIC, C. krusei ATCC 6258, Table 3a, 3 replicates, MIC recorded at 48 h): 0.25 to 1 µg/mL (≈ 0.382 to 1.53 µM)
MIC ([6]; read-out: MIC, C. krusei ATCC 6258, Table 3b (additional results), 3 replicates, MIC recorded at 48 h): 0.25 to 1 µg/mL (≈ 0.382 to 1.53 µM)
IC90 ([7]; read-out: Concentration at 90% Inhibition Pc, Phytophthora capsici, growth inhibition at 48 hours vs 2% DMSO control): > 50 µg/mL
IC90 ([7]; read-out: Concentration at 90% Inhibition Pc, Phytophthora capsici, growth inhibition vs 2% DMSO control at 48 hours): > 50 µg/mL
IC90 ([8]; read-out: Concentration at 90% Inhibition Dm, Diplodia maydis, growth inhibition at 48 hours vs 2% DMSO control): 0.08 µg/mL (≈ 0.122 µM)
IC90 ([8]; read-out: Concentration at 90% Inhibition Dm, Diplodia maydis, growth inhibition vs 2% DMSO control at 48 hours): 0.08 µg/mL (≈ 0.122 µM)
IC90 ([9]; read-out: Concentration at 90% Inhibition Rs, Rhizoctonia solani, mycelial plugs, growth inhibition at 48 hours vs 2% DMSO control): 0.08 µg/mL (≈ 0.122 µM)
IC90 ([9]; read-out: Concentration at 90% Inhibition Rs, Rhizoctonia solani, mycelial plugs, growth inhibition vs 2% DMSO control at 48 hours): 0.08 µg/mL (≈ 0.122 µM)
MIC ([10]; read-out: MIC, C. albicans ATCC 90028, Table 3a, 3 replicates, MIC recorded at 48 h): 0.25 to 1 µg/mL (≈ 0.382 to 1.53 µM)
MIC ([10]; read-out: MIC, C. albicans ATCC 90028, Table 3b (additional results), 3 replicates, MIC recorded at 48 h): 0.25 to 1 µg/mL (≈ 0.382 to 1.53 µM)
MIC ([11]; read-out: MIC, C. parapsilosis ATCC 22019, Table 3a, 3 replicates, MIC recorded at 48 h): 0.25 to 1 µg/mL (≈ 0.382 to 1.53 µM)
MIC ([11]; read-out: MIC, C. parapsilosis ATCC 22019, Table 3b (additional results), 3 replicates, MIC recorded at 48 h): 0.25 to 1 µg/mL (≈ 0.382 to 1.53 µM)

IC50 ([5]; Table 2a): 10 to 40 nM
IC50 ([5]; Table 2b, additional results): 10 to 40 nM
MIC ([6]; Table 3a, ATCC 6258, 3 replicates, MIC recorded at 48 h, read-out: MIC, C. krusei ATCC 6258): 2.1 to 4 µg/mL (≈ 3.27 to 6.22 µM)
MIC ([6]; Table 3b (additional results), ATCC 6258, 3 replicates, MIC recorded at 48 h, read-out: MIC, C. krusei ATCC 6258): 1.01 to 2 µg/mL (≈ 1.57 to 3.11 µM)
MIC ([10]; Table 3a, ATCC 90028, 3 replicates, MIC recorded at 48 h, read-out: MIC, C. albicans ATCC 90028): 2.1 to 4 µg/mL (≈ 3.27 to 6.22 µM)
MIC ([10]; Table 3b (additional results), ATCC 90028, 3 replicates, MIC recorded at 48 h, read-out: MIC, C. albicans ATCC 90028): 1.01 to 2 µg/mL (≈ 1.57 to 3.11 µM)
MIC ([11]; Table 3a, ATCC 22019, 3 replicates, MIC recorded at 48 h, read-out: MIC, C. parapsilosis ATCC 22019): 2.1 to 4 µg/mL (≈ 3.27 to 6.22 µM)
MIC ([11]; Table 3b (additional results), ATCC 22019, 3 replicates, MIC recorded at 48 h, read-out: MIC, C. parapsilosis ATCC 22019): 1.01 to 2 µg/mL (≈ 1.57 to 3.11 µM)
Structure (SMILES): COc1ccc(F)cc1[C@H](Cn1c(=O)n(C(C)(C)C(=O)N2CC(O)C2)c(=O)c2c(C)c(-n3nccn3)sc21)OC1CCOCC1 [Compound I-26, (R)-1-(2-(5-fluoro-2-methoxyphenyl)-2-((tetrahydro-2H-pyran-4-yl)oxy)ethyl)-3-(1-(3-hydroxyazetidin-1-yl)-2-methyl-1-oxopropan-2-yl)-5-methyl-6-(2H-1,2,3-triazol-2-yl)thieno[2,3-d]pyrimidine-2,4(1H,3H)-dione]
IC90 ([1]; Collectotrichum graminicola, growth inhibition at 48 hours vs 2% DMSO control, read-out: Concentration at 90% Inhibition Cg): 10 µg/mL (≈ 15.6 µM)
IC90 ([1]; Collectotrichum graminicola, growth inhibition vs 2% DMSO control at 48 hours, read-out: Concentration at 90% Inhibition Cg): > 50 µg/mL
IC90 [2, 12]: 0.4 µg/mL (≈ 0.622 µM)
IC90 ([2]; Fusarium moniliforme, growth inhibition vs 2% DMSO control at 48 hours): 0.4 µg/mL (≈ 0.622 µM)
IC90 ([3]; Septoria tritici, growth inhibition at 48 hours vs 2% DMSO control, read-out: Concentration at 90% Inhibition St): > 50 µg/mL
IC90 ([3]; Septoria tritici, growth inhibition vs 2% DMSO control at 48 hours, read-out: Concentration at 90% Inhibition St): > 50 µg/mL
IC90 ([4]; growth inhibition at 48 hours vs 2% DMSO control, read-out: Concentration at 90% Inhibition Fv): 2 µg/mL (≈ 3.11 µM)
IC90 ([4]; growth inhibition vs 2% DMSO control at 48 hours, read-out: Concentration at 90% Inhibition Fv): 2 µg/mL (≈ 3.11 µM)
IC90 ([7]; growth inhibition at 48 hours vs 2% DMSO control, read-out: Concentration at 90% Inhibition Pc): > 50 µg/mL
IC90 ([7]; growth inhibition vs 2% DMSO control at 48 hours, read-out: Concentration at 90% Inhibition Pc): > 50 µg/mL
IC90 ([8]; Diplodia maydis, growth inhibition at 48 hours vs 2% DMSO control, read-out: Concentration at 90% Inhibition Dm): 10 µg/mL (≈ 15.6 µM)
IC90 ([8]; Diplodia maydis, growth inhibition vs 2% DMSO control at 48 hours, read-out: Concentration at 90% Inhibition Dm): > 50 µg/mL
IC90 ([9]; mycelial plugs, growth inhibition at 48 hours vs 2% DMSO control, read-out: Concentration at 90% Inhibition Rs): 10 µg/mL (≈ 15.6 µM)
IC90 ([9]; mycelial plugs, growth inhibition vs 2% DMSO control at 48 hours, read-out: Concentration at 90% Inhibition Rs): > 50 µg/mL
